Test results: paper PMC12176262 (The Febs Journal, 2025)
Where two headings read alike, the source gives them in different places.

T1: MCM6 winged-helix domain (WHD) C721S mutant, residues 708-821 (human, UniProt Q14566 708-821, C721S)
T1 sequence (looked up): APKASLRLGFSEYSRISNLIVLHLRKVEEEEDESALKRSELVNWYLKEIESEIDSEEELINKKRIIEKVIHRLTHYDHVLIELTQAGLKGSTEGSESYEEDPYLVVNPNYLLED


Assays:
[1] = tested on: MCM6; conditions: ref [56], cited from earlier work
[2] = molecular target: T1, MCM6 winged-helix domain (WHD) C721S …; test: fluorescence polarisation

Row | fold, competition of MBD-C against FITC-MBD-C relative to FITC-MBD-D [2] [fold] | Molecule | interaction with MCM6 ([1]; both MBD-C and D regions mutated) | interaction with MCM6 ([1]; either MBD-C or D regions deleted)
1 |  | Bloom syndrome helicase [BLM] | weakened the interaction | do not interact
2 | 1.7 | WLSSDVICI (peptide, UniProt P54132 230-238, looked up) [BLM MCM6 binding domain C peptide (BLM 230-238), unlabeled] |  | 
